Laboratory results: US12077503B2, “Substituted cyclic amides and their use as herbicides” (FMC CORPORATION, priority 2015, dated 2024)

Key:
Format in all cases: in vivo
Kochia (Kochia scoparia) [1] = experiment: Test A preemergence; settings: Bassia scoparia, pre-emergence, 240 h, 0 to 100 scale where 0 is no effect and 100 is complete control, read-out: Kochia plant response rating; for pest or weed control at 31 g/ha: 31 g ai/ha, Preemergence; for pest or weed control at 125 g/ha: 125 g ai/ha, preemergence, approx. 10 d
Outline: (§1)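 Each rating is a visual injury score from 0 to 100 given about 10 d after treatment, judged against untreated controls kept alongside in the greenhouse. In loam soil–sand blend, seeds got a preemergence directed soil spray, while postemergence plants were 2 to 10 cm tall at spraying.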

[2] = tested on: barnyardgrass (Echinochloa crus-galli); experiment: Test A preemergence; settings: Echinochloa crus-galli, pre-emergence, 240 h, 0 to 100 scale where 0 is no effect and 100 is complete control, read-out: Barnyardgrass plant response rating; for pest or weed control at 31 g/ha: 31 g ai/ha, Preemergence; for pest or weed control at 125 g/ha: 125 g ai/ha, preemergence, approx. 10 d
Outline: as §1

[3] = tested on: giant foxtail (Setaria faberii); experiment: Test A preemergence; settings: Setaria faberi, pre-emergence, 240 h, 0 to 100 scale where 0 is no effect and 100 is complete control, read-out: Foxtail, Giant plant response rating; for pest or weed control at 31 g/ha: 31 g ai/ha, Preemergence; for pest or weed control at 125 g/ha: 125 g ai/ha, preemergence, approx. 10 d
Outline: as §1

[4] = tested on: pigweed (Amaranthus retroflexus); experiment: Test A preemergence; settings: Amaranthus retroflexus, pre-emergence, 240 h, 0 to 100 scale where 0 is no effect and 100 is complete control, read-out: Pigweed plant response rating; for pest or weed control at 31 g/ha: 31 g ai/ha, Preemergence; for pest or weed control at 125 g/ha: 125 g ai/ha, preemergence, approx. 10 d
[5] = tested on: ragweed (common ragweed, Ambrosia elatior); experiment: Test A preemergence; settings: Ambrosia artemisiifolia, pre-emergence, 240 h, 0 to 100 scale where 0 is no effect and 100 is complete control, read-out: Ragweed plant response rating; for pest or weed control at 31 g/ha: 31 g ai/ha, Preemergence; for pest or weed control at 125 g/ha: 125 g ai/ha, preemergence, approx. 10 d
Outline: as §1

[6] = tested on: ryegrass, Italian (Italian ryegrass, Lolium multiflorum); experiment: Test A preemergence; settings: Lolium multiflorum, pre-emergence, 240 h, 0 to 100 scale where 0 is no effect and 100 is complete control, read-out: Ryegrass, Italian plant response rating; for pest or weed control at 31 g/ha: 31 g ai/ha, Preemergence; for pest or weed control at 125 g/ha: 125 g ai/ha, preemergence, approx. 10 d
Outline: as §1

Kochia (Kochia scoparia) [7] = experiment: Test A postemergence; settings: Bassia scoparia, post-emergence, 240 h; for pest or weed control at 125 g/ha: 125 g ai/ha, postemergence, visual injury on 0 to 100 scale (0 no effect, 100 complete control), approx. 10 d, read-out: Kochia plant response rating; for pest or weed control at 31 g/ha: Postemergence, 31 g ai/ha, visual injury after approx. 10 d, 0 to 100 scale, 0 no effect, 100 complete control, read-out: Plant response rating, Kochia
Outline: as §1

[8] = tested on: barnyardgrass (Echinochloa crus-galli); experiment: Test A postemergence; settings: Echinochloa crus-galli, post-emergence, 240 h; for pest or weed control at 125 g/ha: 125 g ai/ha, postemergence, visual injury on 0 to 100 scale (0 no effect, 100 complete control), approx. 10 d, read-out: Barnyardgrass plant response rating; for pest or weed control at 31 g/ha: Postemergence, 31 g ai/ha, visual injury after approx. 10 d, 0 to 100 scale, 0 no effect, 100 complete control, read-out: Plant response rating, Barnyardgrass
Outline: as §1

[9] = tested on: blackgrass (Alopecurus myosuroides); experiment: Test A postemergence; settings: Alopecurus myosuroides, post-emergence, 240 h; for pest or weed control at 125 g/ha: 125 g ai/ha, postemergence, visual injury on 0 to 100 scale (0 no effect, 100 complete control), approx. 10 d, read-out: Blackgrass plant response rating; for pest or weed control at 31 g/ha: Postemergence, 31 g ai/ha, visual injury after approx. 10 d, 0 to 100 scale, 0 no effect, 100 complete control, read-out: Plant response rating, Blackgrass
Outline: as §1

corn (Zea mays) = experiment: Test A postemergence; settings: Zea mays, post-emergence, 240 h; for plant injury at 125 g/ha: 125 g ai/ha, postemergence, visual injury on 0 to 100 scale (0 no effect, 100 complete control), approx. 10 d, read-out: Corn plant response rating; for Corn plant response rating (crop injury, 0 = no effect, 100 = complete kill) at 31 g/ha: Postemergence, 31 g ai/ha, visual injury after approx. 10 d, 0 to 100 scale, 100 complete control
Outline: as §1

[10] = tested on: giant foxtail (Setaria faberii); experiment: Test A postemergence; settings: Setaria faberi, post-emergence, 240 h; for pest or weed control at 125 g/ha: 125 g ai/ha, postemergence, visual injury on 0 to 100 scale (0 no effect, 100 complete control), approx. 10 d, read-out: Foxtail, Giant plant response rating; for pest or weed control at 31 g/ha: Postemergence, 31 g ai/ha, visual injury after approx. 10 d, 0 to 100 scale, 0 no effect, 100 complete control, read-out: Plant response rating, Foxtail, Giant
Outline: as §1

[11] = tested on: pigweed (Amaranthus retroflexus); experiment: Test A postemergence; settings: Amaranthus retroflexus, post-emergence, 240 h; for pest or weed control at 125 g/ha: 125 g ai/ha, postemergence, visual injury on 0 to 100 scale (0 no effect, 100 complete control), approx. 10 d, read-out: Pigweed plant response rating; for pest or weed control at 31 g/ha: Postemergence, 31 g ai/ha, visual injury after approx. 10 d, 0 to 100 scale, 0 no effect, 100 complete control, read-out: Plant response rating, Pigweed
Outline: as §1

[12] = tested on: ragweed (common ragweed, Ambrosia elatior); experiment: Test A postemergence; settings: Ambrosia artemisiifolia, post-emergence, 240 h; for pest or weed control at 125 g/ha: 125 g ai/ha, postemergence, visual injury on 0 to 100 scale (0 no effect, 100 complete control), approx. 10 d, read-out: Ragweed plant response rating; for pest or weed control at 31 g/ha: Postemergence, 31 g ai/ha, visual injury after approx. 10 d, 0 to 100 scale, 0 no effect, 100 complete control, read-out: Plant response rating, Ragweed
Outline: as §1

[13] = tested on: ryegrass, Italian (Italian ryegrass, Lolium multiflorum); experiment: Test A postemergence; settings: Lolium multiflorum, post-emergence, 240 h; for pest or weed control at 125 g/ha: 125 g ai/ha, postemergence, visual injury on 0 to 100 scale (0 no effect, 100 complete control), approx. 10 d, read-out: Ryegrass, Italian plant response rating; for pest or weed control at 31 g/ha: Postemergence, 31 g ai/ha, visual injury after approx. 10 d, 0 to 100 scale, 0 no effect, 100 complete control, read-out: Plant response rating, Ryegrass, Italian
Outline: as §1

[14] = tested on: wheat (Triticum aestivum); experiment: Test A postemergence; settings: Triticum aestivum, post-emergence, 240 h; for plant injury at 125 g/ha: 125 g ai/ha, postemergence, visual injury on 0 to 100 scale (0 no effect, 100 complete control), approx. 10 d, read-out: Wheat plant response rating; for plant injury at 31 g/ha: Postemergence, 31 g ai/ha, visual injury after approx. 10 d, 0 to 100 scale, 0 no effect, 100 complete control, read-out: Plant response rating, Wheat
Outline: as §1

[15] = tested on: barnyardgrass (Echinochloa crus-galli); experiment: Test B flooded paddy test; settings: Echinochloa crus-galli, 250 g ai/ha, Flood; 0 to 100 scale where 0 is no effect and 100 is complete control; read-out: Barnyardgrass plant response rating
Outline: (§2)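 Visual ratings (0 none to 100 complete control) are relative to untreated plants, taken 13–15 d after treatment in a greenhouse. Test material went straight into floodwater standing 3 cm above the soil, kept constant, on plants at the 2-leaf stage.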

[16] = tested on: ducksalad (Heteranthera limosa); experiment: Test B flooded paddy test; settings: Heteranthera limosa, 250 g ai/ha, Flood; 0 to 100 scale where 0 is no effect and 100 is complete control; read-out: Ducksalad plant response rating
Outline: as §2

rice (Oryra sativa) = experiment: Test B flooded paddy test; settings: Oryza sativa, 250 g ai/ha, Flood; 0 to 100 scale where 0 is no effect and 100 is complete control; read-out: Rice plant response rating
Outline: as §2

[17] = tested on: sedge, umbrella (small-flower umbrella sedge, Cyperus difformis); experiment: Test B flooded paddy test; settings: Cyperus difformis, 250 g ai/ha, Flood; 0 to 100 scale where 0 is no effect and 100 is complete control; read-out: Sedge, Umbrella plant response rating
Outline: as §2

SMILES	pest or weed control at 31 g/ha (Kochia (Kochia scoparia) [1]) [%]	pest or weed control at 125 g/ha (Kochia (Kochia scoparia) [1]) [%]	pest or weed control at 31 g/ha [2] [%]	pest or weed control at 125 g/ha [2] [%]	pest or weed control at 31 g/ha [3] [%]	pest or weed control at 125 g/ha [3] [%]	pest or weed control at 31 g/ha [4] [%]	pest or weed control at 125 g/ha [4] [%]	pest or weed control at 31 g/ha [5] [%]	pest or weed control at 125 g/ha [5] [%]	pest or weed control at 31 g/ha [6] [%]	pest or weed control at 125 g/ha [6] [%]	pest or weed control at 125 g/ha (Kochia (Kochia scoparia) [7]) [%]	pest or weed control at 31 g/ha (Kochia (Kochia scoparia) [7]) [%]	pest or weed control at 125 g/ha [8] [%]	pest or weed control at 31 g/ha [8] [%]	pest or weed control at 125 g/ha [9] [%]	pest or weed control at 31 g/ha [9] [%]	plant injury at 125 g/ha (corn (Zea mays)) [%]	Corn plant response rating (crop injury, 0 = no effect, 100 = complete kill) at 31 g/ha (corn (Zea mays)) [%]	other results
CN1C[C@H](c2cc(C(F)F)cs2)[C@@H](C(=O)Nc2cccc(F)c2C#N)C1=O [Compound 1092]	70	0	40	90	90	100	0	0	0	40	0	0	20	0	90	50	20	0	0	0	pest or weed control at 125 g/ha [10]: 90%; pest or weed control at 31 g/ha [10]: 30%; pest or weed control at 125 g/ha [11]: 20%; pest or weed control at 31 g/ha [11]: 0%; pest or weed control at 125 g/ha [12]: 50%; pest or weed control at 31 g/ha [12]: 0%; pest or weed control at 125 g/ha [13]: 0%; pest or weed control at 31 g/ha [13]: 0%; plant injury at 125 g/ha [14]: 0%; plant injury at 31 g/ha [14]: 0%; pest or weed control at 250 g/ha [15]: 60%; pest or weed control at 250 g/ha [16]: 85%; pest or weed control at 250 g/ha (rice (Oryra sativa)): 0%; pest or weed control at 250 g/ha [17]: 0%
CN1C[C@H](c2cc(C(F)F)cs2)[C@@H](C(=O)Nc2cccc(C#N)c2F)C1=O [Compound 1093]	0	50	40	90	100	100	0	80	0	20	0	0	20	0	80	40	0	0	0	0	pest or weed control at 125 g/ha [10]: 90%; pest or weed control at 31 g/ha [10]: 30%; pest or weed control at 125 g/ha [11]: 20%; pest or weed control at 31 g/ha [11]: 0%; pest or weed control at 125 g/ha [12]: 30%; pest or weed control at 31 g/ha [12]: 0%; pest or weed control at 125 g/ha [13]: 0%; pest or weed control at 31 g/ha [13]: 0%; plant injury at 125 g/ha [14]: 0%; plant injury at 31 g/ha [14]: 0%; pest or weed control at 250 g/ha [15]: 60%; pest or weed control at 250 g/ha [16]: 80%; pest or weed control at 250 g/ha (rice (Oryra sativa)): 0%; pest or weed control at 250 g/ha [17]: 0%
